In US5716797A, “Stable two-part reagent for the measurement of creatine kinase activity” (Wako Pure Chemical Industries, Ltd., priority 1995, dated 1998):

What was measured:
[1] = Solubility of SH compounds in the enzyme solution; settings: as CK reactivator in the enzyme solution
[2] = test system: creatine kinase (CK) in human serum; test: CK activity measured with enzyme solutions containing SH compounds as CK reactivator, fresh and after 1 month of storage (Example 1 / Comparative Example 1); type: biochemical; settings: for CK activity value, Average: average of 5 samples; for CK activity, relative value: NAC just after preparation = 100%
Description: The resulting solution was adjusted to pH 6.7 with sodium hydroxide and stored at a predetermined temperature for a predetermined period. The thus obtained solution were used as enzyme solutions.
Five fresh human serum samples were used.
To 8 μl of each sample was added 320 μl of each enzyme solution, followed by preincubation for 5 minutes. Then, 80 μl of the substrate solution was added to initiate the reaction and the change of absorbance per minute was measured for 3 minutes from 2 minutes after the addition of the substrate solution. The CK activity value was calculated from the molecular extinction coefficient of the NADPH produced.
As a measuring apparatus, an Autoanalyzer Hitachi Model 7150 was used, and the measurement was carried out at 37° C. by use of dual wavelength (λ1 =405 nm, λ2 =340 nm).
Enzyme solutions were prepared in the same manner as in Example 1 by use of the same reagents as in Example 1 except for using a predetermined concentration(s) of one or two SH compounds properly selected from the above-mentioned CK reactivators, in place of the CK reactivator(s) used in Example 1.
CK activity was measured in the same manner as in Example 1.

[3] = test system: creatine kinase (CK) in human serum; test: CK activity measured with enzyme and substrate solutions stored at 10° C. for up to 7 months (Example 2 / Comparative Example 2); type: biochemical; settings: for relative value of CK activity: enzyme solution prepared at the time of use = 100%
Description: An enzyme solution was prepared in the same manner as in Example 1 by use of the same reagents as in Example 1 except for using 100 mM of TG in place of the CK reactivator(s) used in Example 1.
Different 10 fresh human serum samples were used for different measuring operations.
CK activity was measured by the same procedure as described in Example 1 except for using the above-mentioned enzyme solution and substrate solution, both solutions stored at 10° C. for a predetermined time, and each of the above-mentioned samples.
An enzyme solution was prepared in the same manner as in Example 1 by use of the same reagents as in Example 1 except for using 26 mM of NAC in place of the CK reactivator(s) used in Example 1.
CK activity was measured by the same procedure as described in Example 1 except for using the above-mentioned enzyme solution and substrate solution, both solutions stored at 10° C. for a predetermined period, and each of the above-mentioned samples.

[4] = Sample 1, enzyme solution just after preparation, TG 100 mM, 2ME 26 mM, 2MES 26 mM, NAC 26 mM
[5] = Sample 1, enzyme solution stored at 10° C. for 1 month, TG 100, 2ME 26, 2MES 26, NAC 26, L-cysteine 6.5, GSH 12, TDG 5, DTT 6.5 mM
[6] = Sample 1, enzyme solution stored at 20° C. for 1 month, TG 100, 2ME 26, 2MES 26, NAC 26, L-cysteine 6.5, GSH 12, TDG 5, DTT 6.5 mM
[7] = Sample 2, enzyme solution just after preparation, TG 100 mM, 2ME 26 mM, 2MES 26 mM, NAC 26 mM
[8] = Sample 2, enzyme solution stored at 10° C. for 1 month, TG 100, 2ME 26, 2MES 26, NAC 26, L-cysteine 6.5, GSH 12, TDG 5, DTT 6.5 mM
[9] = Sample 2, enzyme solution stored at 20° C. for 1 month, TG 100, 2ME 26, 2MES 26, NAC 26, L-cysteine 6.5, GSH 12, TDG 5, DTT 6.5 mM
[10] = Sample 3, enzyme solution just after preparation, TG 100 mM, 2ME 26 mM, 2MES 26 mM, NAC 26 mM
[11] = Sample 3, enzyme solution stored at 10° C. for 1 month, TG 100, 2ME 26, 2MES 26, NAC 26, L-cysteine 6.5, GSH 12, TDG 5, DTT 6.5 mM
[12] = Sample 3, enzyme solution stored at 20° C. for 1 month, TG 100, 2ME 26, 2MES 26, NAC 26, L-cysteine 6.5, GSH 12, TDG 5, DTT 6.5 mM
[13] = Sample 4, enzyme solution just after preparation, TG 100 mM, 2ME 26 mM, 2MES 26 mM, NAC 26 mM
[14] = Sample 4, enzyme solution stored at 10° C. for 1 month, TG 100, 2ME 26, 2MES 26, NAC 26, L-cysteine 6.5, GSH 12, TDG 5, DTT 6.5 mM
[15] = Sample 4, enzyme solution stored at 20° C. for 1 month, TG 100, 2ME 26, 2MES 26, NAC 26, L-cysteine 6.5, GSH 12, TDG 5, DTT 6.5 mM
[16] = Sample 5, enzyme solution just after preparation, TG 100 mM, 2ME 26 mM, 2MES 26 mM, NAC 26 mM
[17] = Sample 5, enzyme solution stored at 10° C. for 1 month, TG 100, 2ME 26, 2MES 26, NAC 26, L-cysteine 6.5, GSH 12, TDG 5, DTT 6.5 mM
[18] = Sample 5, enzyme solution stored at 20° C. for 1 month, TG 100, 2ME 26, 2MES 26, NAC 26, L-cysteine 6.5, GSH 12, TDG 5, DTT 6.5 mM
[19] = enzyme solution just after preparation, TG 100 mM, 2ME 26 mM, 2MES 26 mM, NAC 26 mM
[20] = enzyme solution stored at 10° C. for 1 month, TG 100, 2ME 26, 2MES 26, NAC 26, L-cysteine 6.5, GSH 12, TDG 5, DTT 6.5 mM
[21] = enzyme solution stored at 20° C. for 1 month, TG 100, 2ME 26, 2MES 26, NAC 26, L-cysteine 6.5, GSH 12, TDG 5, DTT 6.5 mM
[22] = enzyme solution just after preparation
[23] = enzyme solution stored at 10° C. for 1 month
[24] = enzyme solution stored at 20° C. for 1 month
[25] = enzyme solution prepared at the time of use, 1 month measurement, 10 samples
[26] = enzyme solution prepared at the time of use, 3 month measurement, 10 samples
[27] = enzyme solution prepared at the time of use, 6 month measurement, 10 samples
[28] = enzyme solution prepared at the time of use, 7 month measurement, 10 samples
[29] = just after preparation, average of 10 human serum samples, TG 100 mM or NAC 26 mM
[30] = solutions stored at 10° C. for 1 month, 10 samples
[31] = solutions stored at 10° C. for 3 month, 10 samples
[32] = solutions stored at 10° C. for 6 month, 10 samples
[33] = solutions stored at 10° C. for 7 month, 10 samples

Row | Structure (SMILES) | CK activity value [2, 4] [IU/l] | CK activity value [2, 5] [IU/l] | CK activity value [2, 6] [IU/l] | CK activity value [2, 7] [IU/l] | CK activity value [2, 8] [IU/l] | CK activity value [2, 9] [IU/l] | CK activity value [2, 10] [IU/l] | CK activity value [2, 11] [IU/l] | CK activity value [2, 12] [IU/l] | CK activity value [2, 13] [IU/l] | CK activity value [2, 14] [IU/l] | CK activity value [2, 15] [IU/l] | CK activity value [2, 16] [IU/l] | CK activity value [2, 17] [IU/l] | CK activity value [2, 18] [IU/l] | CK activity value, Average [2, 19] [IU/l] | CK activity value, Average [2, 20] [IU/l] | CK activity value, Average [2, 21] [IU/l] | CK activity, relative value [2, 22] [%] | CK activity, relative value [2, 23] [%] | other results
1 | Nc1cc(O)nc(S)n1.O [AHMP, 4-amino-6-hydroxy-2-mercaptopyrimidine monohydrate] |  |  |  |  |  |  |  |  |  |  |  |  |  |  |  |  |  |  |  |  | solubility [1]: low solubility
2 | CC(=O)N[C@@H](CS)C(=O)O [NAC, N-acetylcysteine] | 183 | 184 | 166 | 544 | 550 | 499 | 151 | 152 | 136 | 56 | 55 | 50 | 87 | 88 | 78 | 204 | 206 | 186 | 100.0 | 101.0 | CK activity, relative value [2, 24]: 91.2%; measured value of CK activity after storage ([3]; after 3 months of storage at 10° C.): markedly lowered; average of CK activity values [3, 25]: 196 IU/l.; average of CK activity values [3, 26]: 192 IU/l.; average of CK activity values [3, 27]: 162 IU/l.; average of CK activity values [3, 28]: 192 IU/l.; average of CK activity values [3, 29]: 234 IU/l.; average of CK activity values [3, 30]: 190 IU/l.; average of CK activity values [3, 31]: 146 IU/l.; average of CK activity values [3, 32]: 64 IU/l.; average of CK activity values [3, 33]: 62 IU/l.; relative value of CK activity ([3]; stored at 10° C. for 1 month): 96.9%; relative value of CK activity ([3]; stored at 10° C. for 3 month): 76.0%; relative value of CK activity ([3]; stored at 10° C. for 6 month): 39.5%; relative value of CK activity ([3]; stored at 10° C. for 7 month): 32.3%
3 | OCC(O)CS (centres unmarked) [TG, thioglycerol] | 184 | 183 | 180 | 553 | 556 | 549 | 151 | 154 | 152 | 58 | 57 | 57 | 88 | 88 | 88 | 207 | 208 | 206 | 101.4 | 101.9 | retaining CK-reactivating ability for a long period of time in an aqueous solution [2]: capable of retaining CK-reactivating ability for a long period of time; CK activity, relative value [2, 24]: 100.9%; average of CK activity values [3, 25]: 204 IU/l.; average of CK activity values [3, 26]: 200 IU/l.; average of CK activity values [3, 27]: 168 IU/l.; average of CK activity values [3, 28]: 192 IU/l.; average of CK activity values [3, 29]: 240 IU/l.; average of CK activity values [3, 30]: 202 IU/l.; average of CK activity values [3, 31]: 198 IU/l.; average of CK activity values [3, 32]: 168 IU/l.; average of CK activity values [3, 33]: 190 IU/l.; relative value of CK activity ([3]; stored at 10° C. for 1 month): 99.0%; relative value of CK activity ([3]; stored at 10° C. for 3 month): 99.0%; relative value of CK activity ([3]; stored at 10° C. for 6 month): 100.0%; relative value of CK activity ([3]; stored at 10° C. for 7 month): 99.0%
